The assay deals with T1, integrin VLA-4, expressed on the Jurkat J6 (human lymphoblast cell line) cell membrane with VCAM-1 (Homo sapiens, UniProt P05556+P13612).
T1 construct: integrin VLA-4, expressed on the Jurkat J6 (human lymphoblast cell line) cell membrane; endogenous in cells; host or cells: Jurkat J6 cells (integrin). zzVCAM-1 was made in house in Drosophila melanogaster S2 cells
As to the kind of experiment: Jurkat J6/VCAM-1 adhesion assay. In kind it is cell-based. The following applies: Jurkat J6 cell adhesion to VCAM-1, 1 mM MnCl2; mean of n experiments. As to the method:
(1) Jurkat J6/VCAM-1 Adhesion Assay
This assay was used to investigate the interaction of the integrin VLA-4, expressed on the Jurkat J6 (human lymphoblast cell line) cell membrane with VCAM-1. Polystyrene 96-well microtitre plates were coated with human immunoglobulin G (IgG; Sigma Chemicals, UK, Product No. 14506) at a concentration of 0.05 mg ml^−1 in bicarbonate buffer (36 mM NaHCO3 and 22 mM Na2CO3, prepared in Dulbecco's phosphate buffered saline at pH 9.8 (PBS); Sigma Chemicals, UK, Product No. 14190-094) for 2 hours at 37° C. This solution was then aspirated and the plates were washed twice with PBS.
VCAM-1 was prepared by cloning its constituent seven domains into a Drosophila expression system with a zz (Protein A) tag. This zzVCAM-1 was then expressed from Drosophila melanogaster S2 cell culture, induced with copper. Protease inhibitors were added and the culture supernatant was clarified either by filtration through a 0.2 μm filter or by centrifugation. The zzVCAM-1 was then purified from this clarified medium using an IgG agarose column, equilibrated with either 20 mM sodium phosphate pH 7.2 alone or in the presence of 0.5M sodium chloride. Elution of zzVCAM-1 from the column was mediated using 3M ammonium thiocyanate, which was subsequently removed using a G25 desalting column, equilibrated with 20 mM sodium phosphate, pH 7.2. The purified zzVCAM-1 was then concentrated to a small volume (Amicon stirred cell concentrators) until a concentration of 62.5 ng ml^−1 was obtained, calculated using the extinction coefficient value.
This solution of zzVCAM-1 was then incubated overnight at 4° C. in the IgG coated microtitre plates with 3% bovine serum albumin (BSA) in PBS, followed by aspiration and two further washes with PBS. A concentration of the Jurkat J6 cells (6×10^6 cels ml^−1), grown in cell media RPMI 1640 (HyClone Ltd, Product No. B-9106-L) supplemented with 10% heat inactivated fetal calf serum (FCS; Gibco BRL, Product No. 10099-075) and 2 mM L-glutamine, were labelled with 10 μM of the fluorescent dye, 2′, 7′-bis(2-carboxyethyl)-5-(e6)-carboxyfluorescein acetoxymethyl ester (BCECF-AM; Molecular Probes Inc, Product No. B-1150) at 37° C. for 10 minutes. The excess dye was then removed by centrifugation at 500×g for 5 minutes and the cells were resuspended at a concentration of 1.2×10^7 cells ml^−1 in Hank's balanced salt solution (HBSS; Gibco BRL, Product No. 14190-094).
Equal volumes of compounds (dissolved in an appropriate solvent and diluted in HBSS containing 1 mM MnCl2) and the labelled Jurkat J6 cells, were added to the VCAM-1 coated plates and adhesion was allowed to proceed for 30 minutes at 37° C. Non, or loosely adhered cells, were removed by inversion of the plate and blotted with tissue paper. Two washes with PBS and further blotting were then performed, before the addition of 2% detergent (Triton-X®; Sigma Chemicals UK, Product No. X100). Counting was undertaken in a Wallac Viktor™ Fluorimeter, where low fluorescence values were indicative of compounds which had inhibited adhesion. All samples were assayed in singlicate and the following four parameter curve fit, shown by Equation (I) was applied: [formula]
Where a is the minimum, b is the Hill slope, c is the IC50 and d is the maximum. (Maximum and minimum values are those compared to adhesion in the absence of compound and in the presence of the dipotassium salt of 2 mM EDTA; Sigma Chemicals, UK, Product No. ED2P). Data is presented as the mean pIC50 with the standard error of the mean of n experiments.

The values that follow come from patent US6867192B1, “Compounds useful in the treatment of inflammatory diseases” (priority 1998, dated 2005).

For orientation: IC50 means the concentration that gives 50% inhibition. Lower therefore signals higher potency.

SMILES strings stand for the structures.

T1 sequence (P13612 34-1032): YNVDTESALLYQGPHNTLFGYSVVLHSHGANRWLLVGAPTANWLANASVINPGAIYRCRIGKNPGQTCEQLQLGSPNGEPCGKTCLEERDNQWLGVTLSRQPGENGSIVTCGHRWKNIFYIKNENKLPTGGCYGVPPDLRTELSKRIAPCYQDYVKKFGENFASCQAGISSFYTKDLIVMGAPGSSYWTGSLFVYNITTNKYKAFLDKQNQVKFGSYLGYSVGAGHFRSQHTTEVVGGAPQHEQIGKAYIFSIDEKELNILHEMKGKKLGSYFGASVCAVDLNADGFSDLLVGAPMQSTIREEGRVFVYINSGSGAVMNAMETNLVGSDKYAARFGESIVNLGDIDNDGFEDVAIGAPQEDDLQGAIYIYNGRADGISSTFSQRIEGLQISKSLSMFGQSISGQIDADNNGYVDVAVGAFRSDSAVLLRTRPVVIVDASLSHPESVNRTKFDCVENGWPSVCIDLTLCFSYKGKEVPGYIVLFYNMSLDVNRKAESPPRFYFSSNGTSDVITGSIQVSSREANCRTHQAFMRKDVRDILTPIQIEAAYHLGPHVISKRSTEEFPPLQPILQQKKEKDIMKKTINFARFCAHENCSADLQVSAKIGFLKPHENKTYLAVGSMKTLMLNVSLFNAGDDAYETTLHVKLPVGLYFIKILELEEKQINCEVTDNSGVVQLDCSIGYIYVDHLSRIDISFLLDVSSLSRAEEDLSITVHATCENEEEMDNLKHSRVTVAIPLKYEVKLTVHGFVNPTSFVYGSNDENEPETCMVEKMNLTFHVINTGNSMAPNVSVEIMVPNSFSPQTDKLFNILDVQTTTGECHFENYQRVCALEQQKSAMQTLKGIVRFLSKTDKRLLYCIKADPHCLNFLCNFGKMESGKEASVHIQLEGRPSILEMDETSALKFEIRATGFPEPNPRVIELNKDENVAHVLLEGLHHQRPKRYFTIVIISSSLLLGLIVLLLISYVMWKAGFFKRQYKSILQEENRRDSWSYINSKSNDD
T1 sequence (P05556 21-798): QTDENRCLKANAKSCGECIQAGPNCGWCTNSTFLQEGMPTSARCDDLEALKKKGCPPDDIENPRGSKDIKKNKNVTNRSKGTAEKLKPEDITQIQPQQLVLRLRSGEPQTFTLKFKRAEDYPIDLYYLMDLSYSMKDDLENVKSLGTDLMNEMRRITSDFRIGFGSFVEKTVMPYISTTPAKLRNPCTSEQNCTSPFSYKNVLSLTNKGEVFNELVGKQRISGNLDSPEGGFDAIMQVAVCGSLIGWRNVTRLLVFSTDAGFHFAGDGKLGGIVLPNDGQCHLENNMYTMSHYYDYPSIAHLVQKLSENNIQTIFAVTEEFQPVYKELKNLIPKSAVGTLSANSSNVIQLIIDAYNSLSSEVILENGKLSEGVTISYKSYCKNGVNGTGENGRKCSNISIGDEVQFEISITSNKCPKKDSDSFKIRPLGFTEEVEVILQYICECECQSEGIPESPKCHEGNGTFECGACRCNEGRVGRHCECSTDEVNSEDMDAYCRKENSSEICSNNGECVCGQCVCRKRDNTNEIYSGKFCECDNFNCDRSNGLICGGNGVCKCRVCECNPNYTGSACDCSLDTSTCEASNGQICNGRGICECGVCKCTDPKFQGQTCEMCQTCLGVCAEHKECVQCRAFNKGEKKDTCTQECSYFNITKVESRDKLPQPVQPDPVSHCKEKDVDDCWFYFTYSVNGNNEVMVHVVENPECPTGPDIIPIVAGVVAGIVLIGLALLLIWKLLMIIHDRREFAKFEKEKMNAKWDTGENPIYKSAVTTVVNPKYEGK

`CC(C)C[C@H](NC(=O)COc1ccccc1C1CCCCC1)C(=O)N[C@@H](Cc1ccc(OC(=O)N2CCN(C(=O)c3ccco3)CC2)cc1)C(=O)O` [Example 43, (2S)-2-[((2S)-2-{[2-(2-Cycohexylphenoxy)acetyl]amino}-4-methylpentanoyl)amino]-3-[4-({[4-(2-furoyl)-1-piperazinyl]carbonyl}oxy)phenyl]propanoic acid]: the IC50 was 22.4 nM.
Compound `CC(C)C[C@H](NC(=O)COc1ccc2ccccc2c1Br)C(=O)N[C@@H](Cc1ccc(OC(=O)N2CCN(C(=O)c3ccco3)CC2)cc1)C(=O)O` [Example 44, (2S)-2-{[(2S)-2-({2-[(1-Bromo-2-naphthyl)oxy]acetyl}amino)-4-methylpentanoyl]amino}-3-[4-({[4-(2-furoyl)-1-piperazinyl]carbonyl}oxy)phenyl]propanoic acid] showed an IC50 of 24 nM.
`CC(C)C[C@H](NC(=O)COc1ccccc1C1CCCCC1)C(=O)N[C@@H](Cc1ccc(OC(=O)N2CCC(NC(=O)Cc3ccc(Cl)cc3)CC2)cc1)C(=O)O` [Example 45, (2S)-3-(4-{[(4-{[2-(4-Chlorophenyl)acetyl]amino}-1-piperidinyl)carbonyl]oxy}phenyl)-2-[((2S)-2-{[2-(2-cyclohexylphenoxy)acetyl]amino}-4-methylpentanoyl)amino]propanoic acid] had a concentration for half-maximal inhibition (IC50) of 57.5 nM.
For the compound `CC(C)C[C@H](NC(=O)COc1ccccc1C(=O)c1ccccc1)C(=O)N[C@@H](Cc1ccc(OC(=O)N2CCC(NC(=O)Cc3ccc(Cl)cc3)CC2)cc1)C(=O)O` [Example 46, (2S)-2-[((2S)-2-{[2-(2-Benzoylphenoxy)acetyl]amino}-4-methylpentanoyl)amino]-3-(4-{[(4-{[2-(4-chlorophenyl)acetyl]amino}-1-piperidinyl)carbonyl]oxy}phenyl)propanoic acid], the 50% inhibitory concentration (IC50) was 43.7 nM.
The result for `CC(C)C[C@H](NC(=O)COc1ccccc1I)C(=O)N[C@@H](Cc1ccc(OC(=O)N2CCC(NC(=O)Cc3ccc(Cl)cc3)CC2)cc1)C(=O)O` [Example 47, (2S)-3-(4-{[(4-{[2-(4-Chlorophenyl)acetyl]amino}-1-piperidinyl)carbonyl]oxy}phenyl)-2-[((2S)-2-{[2-(2-iodophenoxy)acetyl]amino}-4-methylpentanoyl)amino]propanoic acid] reads 33.1 nM.
Regarding `CC(C)C[C@H](NC(=O)COc1ccccc1C(C)(C)C)C(=O)N[C@@H](Cc1ccc(OC(=O)N2CCC(NC(=O)Cc3ccc(Cl)cc3)CC2)cc1)C(=O)O` [Example 48, (2S)-2-{[(2S)-2-({2-[2-(Tert-butyl)phenoxy]acetyl}amino)-4-methylpentanoyl]amino}-3-(4-{[(4-{[2-(4-chlorophenyl)acetyl]amino}-1-piperidinyl)carbonyl]oxy}phenyl)propanoic acid], the IC50 was 41.7 nM.
`CC(C)C[C@H](NC(=O)c1cccc2c1oc1ccccc12)C(=O)N[C@@H](Cc1ccc(OC(=O)N2CCC(NC(=O)Cc3ccc(Cl)cc3)CC2)cc1)C(=O)O` [Example 49, (2S)-3-(4-{[(4-{[2-(4-Chlorophenyl)acetyl]amino}-1-piperidinyl)carbonyl]oxy}phenyl)-2-({(2S)-2-[(dibenzo[b,d]furan-4-ylcarbonyl)amino]-4-methylpentanoyl}amino)propanoic acid] showed a 50% inhibitory concentration (IC50) of 44.7 nM.
`CC(C)C[C@H](NC(=O)COc1cc2ccccc2cc1C(=O)N1CCCCC1)C(=O)N[C@@H](Cc1ccc(OC(=O)N2CCC(NC(=O)Cc3ccc(Cl)cc3)CC2)cc1)C(=O)O` [Example 50, (2S)-3-(4-{[(4-{[2-(4-Chlorophenyl)acetyl]amino}-1-piperidinyl)carbonyl]oxy}phenyl)-2-({(2S)-4-methyl-2-[(2-{[3-(1-piperidinylcarbonyl)-2-naphthyl]oxy}acetyl)amino]pentanoyl}amino)propanoic acid] gave a half-inhibitory concentration (IC50) of 25.1 nM.
For the compound `CC(C)C[C@H](NC(=O)COc1ccccc1C(C)(C)C)C(=O)N[C@@H](Cc1ccc(OC(=O)N2CCC(NC(=O)Cc3ccccc3)CC2)cc1)C(=O)O` [Example 51, (2S)-2-{[(2S)-2-({2-[2-(Tert-butyl)phenoxy]acetyl}amino)-4-methylpentanoyl]amino}-3-{4-[({4-[(2-phenylacetyl)amino]-1-piperidinyl}carbonyl)oxy]phenyl}propanoic acid], the IC50 was 13.8 nM.
Consider `CC(C)C[C@H](NC(=O)COc1ccccc1C(C)(C)C)C(=O)N[C@@H](Cc1ccc(OC(=O)N2CCC(NC(=O)CC3CCCCC3)CC2)cc1)C(=O)O` [Example 52, (2S)-2-{[(2S)-2-({2-[2-(Tert-butyl)phenoxy]acetyl}amino)-4-methylpentanoyl]amino}-3-{4-[({4-[(2-cyclohexylacetyl)amino]-1-piperidinyl}carbonyl)oxy]phenyl}propanoic acid], for which the IC50 is 33.1 nM.
Turning to `CC(C)C[C@H](NC(=O)COc1ccccc1C(C)(C)C)C(=O)N[C@@H](Cc1ccc(OC(=O)N2CCC(NC(=O)C(C3CCCCC3)C3CCCCC3)CC2)cc1)C(=O)O` [Example 53, (2S)-2-{[(2S)-2-({2-[2-(Tert-butyl)phenoxy]acetyl}amino)-4-methylpentanoyl]amino}-3-{4-[({4-[(2,2-dicyclohexylacetyl)amino]-1-piperidinyl}carbonyl)oxy]phenyl}propanoic acid], the IC50 was 155 nM.
As for `Cc1ccccc1OCC(=O)N[C@@H](CC(C)C)C(=O)N[C@@H](Cc1ccc(OC(=O)N2CCC(NC(=O)Cc3ccccc3)CC2)cc1)C(=O)O` [Example 54, (2S)-2-[((2S)-4-Methyl-2-{[2-(2-methylphenoxy)acetyl]amino}pentanoyl)amino]-3-{4-[({4-[(2-phenylacetyl)amino]-1-piperidinyl}carbonyl)oxy]phenyl}propanoic acid], the IC50 was 5.62 nM.
The same measure for `CC(C)C[C@H](NC(=O)COc1ccccc1C1CCCCC1)C(=O)N[C@@H](Cc1ccc(OC(=O)N2CCC(NC(=O)Cc3ccccc3)CC2)cc1)C(=O)O` [Example 55, (2S)-2-[((2S)-2-{[2-(2-Cyclohexylphenoxy)acetyl]amino}-4-methylpentanoyl)amino]-3-{4-[({4-[(2-phenylacetyl)amino]-1-piperidinyl}carbonyl)oxy]phenyl}propanoic acid]: 61.7 nM; for `CC(C)C[C@H](NC(=O)COc1ccccc1C1CCCCC1)C(=O)N[C@@H](Cc1ccc(OC(=O)N2CCC(NC(=O)CC3CCCCC3)CC2)cc1)C(=O)O` [Example 56, (2S)-3-{4-[({4-[(2-Cyclohexylacetyl)amino]-1-piperidinyl}carbonyl)oxy]phenyl}-2-[((2S)-2-{[2-(2-cyclohexylphenoxy)acetyl]amino}-4-methylpentanoyl)amino]propanoic acid]: 87.1 nM.
